Results reported in PMC8623215, “Zhaoshumycins A and B, Two Unprecedented Antimycin-Type Depsipeptides Produced by the Marine-Derived Streptomyces sp. ITBB-ZKa6” (Marine Drugs, 2021).

Test system: MCF7 human breast cancer cell line
Assay: Cytotoxic activity test, MTT method, MCF7 cells
Type: cell-based
Conditions: for inhibition rate: compound at 50 µM, dissolved in DMSO
Source text: Dimethyl sulfoxide (DMSO) was used to dissolve the tested compounds.

Substance | inhibition rate [%] | cytotoxic activity (in words) (preliminary in vitro test)
neoantimycin E [Compound 6] | 90.53 | –
neoantimycin D [Compound 5] | 91.08 | weak cytotoxic activity
